In patent US9856225B2, “Substituted phenazines as antimicrobial agents” (University of Florida Research Foundation, Incorporated, priority 2013, dated 2018):
Read-outs that look alike come from different tables or passages of the source.

Legend:
Assay type in all cases: cell-based
[1] = system: Staphylococcus aureus (ATCC 25923) biofilm; experiment: Biofilm inhibition, crystal violet staining; design: MIC/IC50 Biofilm: unit not given here; details: for Phenotype: planktonic growth vs biofilm formation; for IC50: Staphylococcus aureus, ATCC25923; for MIC/IC50 Biofilm: ratio of MIC to IC50 of biofilm inhibition
Description: Biofilm Inhibition Protocol for S. aureus (ATCC 25923). A serial two-fold dilution of 2× bromophenazine small molecule concentration was made in 100 μL tryptic soy broth (TSB) medium with 0.5% glucose were delivered into 0.1% gelatin (Millipore) coated 96-well tissue culture plates. […] To each well, 100 μL of TSB with 0.5% glucose containing 2×10^6 CFU/mL Staphylococcus aureus cells, prepared from fresh culture (OD600 of 0.8), was added. The plates were incubated at 37° C. for 24 hours. The wells were gently rinsed by submerging the entire plates in a tub of cold, running tap water. The wells were then fixed with 200 μL methanol for 15 minutes. After the plates were air dried, the biofilms were stained with 100 μL of 1% crystal violet for 10 minutes. The plates were again rinsed with running water. After drying in air, quantitative assessment of biofilm formation was obtained by extracting the crystal violet associated with the remaining biofilm with 100 μL per well of the following bleaching solution (methanol:glacial acetic acid:water (v/v/v)=4:1:5). This bleaching solution dissolved the bound crystal violet and produced a violet-colored solution in each well. The intensity of coloration was determined by measuring the absorbance at 540 nm.

[2] = system: Acinetobacter baumannii (ATCC 19606) pre-formed biofilm; experiment: Biofilm dispersion, crystal violet; details: for percent biofilm dispersion at 100 µM: Acinetobacter baumannii, ATCC19606, 24 h
Description: Biofilm Dispersion Protocol for A. baumannii (ATCC 19606): To a 96-well plate was added a volume of 100 μL Mueller-Hinton broth that was inoculated with ˜7×10^6 colony forming units per milliliter (corresponding to an OD600 of 0.01 prepared directly from an overnight culture). Two columns of wells were left blank to serve as our background wells. A lid was placed on the 96-well plate which was wrapped in suran wrap, placed in a humidifying chamber and incubated under static conditions at room temperature for 24 hours to establish bacterial biofilms. Following this initial incubation at room temperature, the media and planktonic bacteria were then removed from 96-well plates and the wells were then washed with water. Fresh medium was then added and series of ten two-fold serial dilutions of text compound were made in the 96-well plate using a multichannel pipette. A lid was then placed on 96-well plate which was then wrapped in suran wrap, placed in a humidifying chamber and incubated under static conditions at 37° C. for 24 hours. Following this second incubation to test compounds against pre-formed biofilms, the media and planktonic bacteria were again removed from 96-well plates and the wells were then washed with water. The bacterial biofilms within the microtiter wells were stained with 200 μL of an aqueous 0.1% crystal violet solution that was allowed to stand for 10-20 minutes. The crystal violet stain was then removed, the wells were rinsed with water and dried. The crystal violet stain that remained on the inside of the wells (i.e., stained bacterial biofilm) on the inside of the wells was solubilized by the addition of 200 μL ethanol and absorbance was read at OD540 using a spectrophotometer. Note: The concentration range tested for each compound was 0.2-100 μM. Single data points for all compounds and DMSO controls were tested in two replicate rows in 96-well plates and corresponding absorbance readings were averaged for the quantification of remaining bacterial biofilms. Reported percent dispersion of biofilms was determined by the comparison of compound treated wells (the average of the two replicate wells) versus vehicle control wells without compound following background subtraction (i.e., an empty, untreated well) and reported from two independent experiments. DMSO was serially diluted at the same concentration as test compounds with a top concentration of 1% v/v.

[3] = system: Staphylococcus aureus (ATCC 25923) established biofilm; experiment: Biofilm dispersion, crystal violet staining; details: for EC50: Staphylococcus aureus, read-out: Biofilm Dispersion EC50
Description: Biofilm Dispersion Protocol for Staphylococcus aureus (ATCC 25923): A single colony grown on tryptic soy agar (TSA) solid medium is amplified in 2 milliliters of tryptic soy broth (TSB) medium with 0.5% glucose to an OD600=0.8-1.0. The bacterial suspension was then diluted to 1×10^6 CFU/mL in TSB with 0.5% glucose. Sterile 96-well flat-bottomed polystyrene plates (0.1% gelatin coated overnight) were then filled with 200 μL of this bacterial suspension. The plates were then covered and incubated for 24 hours at 37° C. Following this, the contents of the wells were discarded and washed with 200 μL PBS (one time). Then serial, two-fold dilutions of bromophenazine small molecules in 200 μL PBS were delivered into each well. The plates were then covered and incubated for another 24 hours at room temperature. After this incubation time, the plates were gently washed with water three times (wells were rinsed by submerging the entire plates in a tub of cold, running tap water). Remaining biofilms were then fixed with 200 μL of methanol for 15 minutes. The plates were emptied and left to air dry. Upon drying, 100 μL of 1% crystal violet was added to each well for 10 minutes, then washed three times with water and again air dried. For quantitative assessment of biofilm formation 100 μL per well of bleaching solution (methanol:glacial acetic acid:water (v/v/v)=4:1:5 with rotary shaking for 1 hour) was used. Remaining biofilm was measured using a spectrophotometer (absorbance readings at 540 nm).
Further microdilution MIC assays were carried out for 11, 21-26, and 4a-29a against Staphylococcus aureus (ATCC 25923) in Luria Broth media (at ˜10^5 CFUmL^−1) to establish the level of growth inhibition for each compound (see FIGS. 5-13). […] Differentiation of a “biofilm inhibitor” from an antibacterial agent was carried out according to the ratio of MIC/IC50 of biofilm inhibition (based on crystal violet staining dose-response). […] Following the biofilm inhibition screen, bromophenazines 12a, 14a, 18a and 20a were evaluated in three independent biofilm inhibition experiments against Staphylococcus aureus to obtain replicate data. […] In addition to inhibiting biofilm formation, small molecules that are able to disperse or clear preexisting bacterial biofilms would be highly valuable. Six of the bromophenazine analogues (11, 4a, 8a, 23a, 27a, 28a; see Table 2 and FIGS. 18-19) were evaluated in biofilm dispersion assays by allowing Staphylococcus aureus biofilms to establish in 96-well plates for 24 hours at 37° C. After this incubation time, the media and planktonic cells were removed followed by a wash of the 96-well plates with water. Phosphate buffered saline (PBS) was then added to the 96-well plate followed by the addition of bromophenazine compounds (with 2-fold serial dilutions of each compound tested). The resulting plates were then allowed to incubate at room temperature for 24 hours and stained with crystal violet to quantify biofilm dispersion.

[4] = S. aureus ATCC 25923, single replicate screen, read-out: Biofilm Inhibition IC50
[5] = A. baumannii ATCC 19606, read-out: % Biofilm Dispersion at 100 μM
[6] = ATCC25923, S. aureus ATCC 25923, 24 h in PBS at room temperature
[7] = read-out: % Biofilm Dispersion at 100 μM, A. baumannii ATCC 19606
[8] = S. aureus, three independent experiments, read-out: Biofilm inhibition IC50 (triplicate)

| Compound | Phenotype ([1]; S. aureus ATCC 25923) | IC50 [1, 4] [nM] | MIC/IC50 Biofilm ([1]; S. aureus ATCC 25923) | Biofilm Dispersal Agent? ([2]; A. baumannii ATCC 19606) | percent biofilm dispersion at 100 µM [2, 5] [%] | Biofilm Dispersal Agent? ([3]; S. aureus ATCC 25923) | EC50 [3, 6] [nM] | percent biofilm dispersion at 100 µM [2, 7] [%] | EC50 ([3]; ATCC25923, 24 h) [nM] | IC50 [1, 8] [nM] |
| --- | --- | --- | --- | --- | --- | --- | --- | --- | --- | --- |
| CCC(=O)Oc1c(Br)cc(Br)c2nc3ccccc3nc12 [Compound 4a] | antibacterial | 920 | 1.7 | Yes | 53 to 57 | Yes | 2600 | – | – | – |
| O=C(CCCC(=O)Oc1c(Br)cc(Br)c2nc3ccccc3nc12)Oc1c(Br)cc(Br)c2nc3ccccc3nc12 [Compound 5a] | – | 12100 | >8.3 | Yes | 30 ± 3 | – | – | – | – | – |
| O=C(OCCc1ccccc1)Oc1c(Br)cc(Br)c2nc3ccccc3nc12 [Compound 8a] | antibacterial | 760 | 2.1 | Yes | 32 ± 4 | No | > 100000 | – | – | – |
| Oc1c(Br)cc(Br)c2nc3ccccc3nc12 [Compound 11, 2,4-Dibromophenazin-1-ol] | antibacterial | 410 | – | Yes | – | Yes | – | 53 to 57 | 29300 | – |
| O=C(Oc1c(Br)cc(Br)c2nc3ccccc3nc12)c1ccc(Br)cc1 [Compound 12a] | – | 810 | – | No | 5 ± 12 | – | – | – | – | 1130 |
| O=C(Oc1c(Br)cc(Br)c2nc3ccccc3nc12)c1ccc(Cl)cc1 [Compound 14a] | – | 640 | – | No | 7 ± 2 | – | – | – | – | 770 |
| O=C(Oc1c(Br)cc(Br)c2nc3ccccc3nc12)c1cccc([N+](=O)[O-])c1 [Compound 15a] | antibacterial | 360 | 4.3 | Yes | 36 ± 2 | – | – | – | – | – |
| Cc1ccc(C(=O)Oc2c(Br)cc(Br)c3nc4ccccc4nc23)cc1 [Compound 18a] | – | 450 | – | No | -1 ± 6 | – | – | – | – | 550 |
| CC(=O)Oc1c(Br)cc(Br)c2nc3ccccc3nc12 [Compound 21, 2,4-Dibromophenazin-1-yl acetate] | antibacterial | 420 | 2.8 | Yes | – | – | – | 53 to 57 | – | – |
| O=C(Oc1c(Br)cc(Br)c2nc3ccccc3nc12)c1ccccc1 [Compound 23, 2,4-Dibromophenazin-1-yl benzoate] | antibacterial | 1710 | 0.9 | No | – | – | – | -1 ± 6 | – | – |
| O=C(Oc1c(Br)cc(Br)c2nc3ccccc3nc12)c1ccco1 [Compound 23a] | antibacterial | 760 | – | No | 17 ± 14 | Yes | 1400 | – | – | – |
| O=C(OCC(Cl)(Cl)Cl)Oc1c(Br)cc(Br)c2nc3ccccc3nc12 [Compound 27a] | antibacterial | 760 | 1.0 | Yes | 38 ± 6 | No | > 100000 | – | – | – |
| COC(=O)Oc1c(Br)cc(Br)c2nc3ccccc3nc12 [Compound 28a] | antibacterial | 770 | 2.0 | Yes | 53 to 57 | Yes | 2900 | – | – | – |
